Laboratory results taken from article PMC9982066, “Inhibition of Ehrlichia chaffeensis infection by cell-permeable macrocyclic peptides that bind type IV secretion effector Etf-1” (PNAS Nexus, 2023).
Where two headings read alike, the source gives them in different places. Starred links: 1 amine or outer side, 2 acyl side, 3 side chain; linkers in the order of their positions; H or OH if unused. Positions of bridges follow the written chain, without caps; N, C: chain ends. Non-standard residues stand in square brackets, D forms with d. Residues, ends and D or L forms follow the SMILES beside them. Trimesoyl = O=C(c1cc(C(=O)[*:2])cc(C(=O)[*:3])c1)[*:1]; Phe(4-Cl) = N[C@@H](Cc1ccc(Cl)cc1)C(=O)O; d2Nal = N[C@H](Cc1ccc2ccccc2c1)C(=O)O; Phg = N[C@H](C(=O)O)c1ccccc1; d(β3hA) = C[C@@H](N)CC(=O)O; Dap = NC[C@H](N)C(=O)O

Legend:
Etf-1 = Etf-1 (Ehrlichia chaffeensis, UniProt Q2GG12); assay: biochemical; assay type: binding; conditions: for competition for Etf-1 binding: unlabeled competitor peptides vs FAM-B7-133-8
Experimental: Fig. 2. Determination of binding affinity of Etf-1-binding peptides by FP assay. […] FAM-labeled peptide (50 nM) was incubated with serially diluted Etf-1 (starting from 25–30 μM in PBS, pH 7.4, supplemented with 5 mM DTT and 0.01% Triton X-100) for 1 h at RT. FP values were measured on a Tecan Infinite M1000 Pro plate reader. Titration curves (n ≥ 3) were fitted using GraphPad Prism and analyzed with TraceDrawer to calculate dissociation constants (KD). […] Data were analyzed using GraphPad Prism and fitted to a four-parameter variable slope equation to determine IC50 values.
Serial dilutions of competitor peptide (0-20 μM) were prepared from DMSO stock solutions into PBS containing 0.01% Triton-X100 and 2 mM TCEP and added to aliquots of the equilibrated Etf-1/probe solution. After incubation for 1 h in the dark and with gentle mixing, 20 μL of each sample was transferred into 384-well black-on-black microplates and FP was measured using a TECAN Infinite M1000 plate reader. Data were analyzed using GraphPad PRISM ver. 8.0 and fit to a four-parameter variable slope equation to determine IC50 values. IC50 values reported are the mean ± SD of n = 2–4 independent experiments.

THP-1 cells = assay: CellTiter-Glo luminescent cell viability assay; conditions: 20 μM, 2-day treatment
From the text: THP-1 (human promyelocytic leukemia) cells are widely used as E. chaffeensis infection studies of human monocytes in vitro, since initial characterization of infection ([31]).
Fig. 4. Cytotoxicity and proteolytic stability of Etf-1-binding peptides. (A) Effect of Etf-1-binding peptides on the viability of THP-1 cells as determined by CellTiter-Glo luminescent assay. Relative luminescence was plotted as function of the peptide concentration, with the cell viability of DMSO control group set as 100%. (B) Plot of the amount of intact peptide remaining as a function of the incubation time in 25% human serum. All values are normalized to that of peptide at time 0 (100%).
Cytotoxicity of Etf-1-binding peptides was examined by CellTiter-Glo luminescent cell viability assay (Promega, Madison, WI, USA). THP-1 cells were seeded in a transparent 96-well plate at a density of 5 × 10^3 cells/well (100 μL in each well) in RPMI-1640 containing 10% FBS and 1% antibiotics and cultured overnight. Etf-1-binding peptides were serially diluted in DPBS from a DMSO stock and added to the cells with the final concentration of 0–25 μM and a constant final concentration of 0.5% DMSO (v/v). After incubation at 37°C with 5% CO2 for 46 h, the plate was removed and pre-equilibrated to RT before the addition of 100 μL of the CellTiter-Glo 2.0 reagent to each well. The plate was incubated for 15 min on a rotary shaker in the dark, and the luminescence was detected (1-s integration time) on a Tecan Infinite M1000 Pro microplate reader. Relative luminescence was plotted as function of the peptide concentration, with the cell viability of DMSO control group set as 100%.

[1] = LDH release assay (plasma membrane damage); assay type: cell-based; conditions: Fig. S2
Experimental: LDH release assay (Promega) was performed to assess the level of plasma membrane damage in a cell population by these compounds. […] Control wells contained 10 μL of lysis buffer, cell-free complete growth media, or positive LDH control. Following incubation at 37°C and 5% CO2 for 45 to 75 min, the culture was centrifuged and 50 μL of the growth medium was withdrawn from each well, transferred to a clear 96-well plate, mixed with 50 μL of LDH substrate mixture, and incubated at RT for 30 min with gentle mixing. Finally, 50 μL of 1 N HCl was added to each well, and the absorbances at 490 and 680 nm were immediately measured on a Tecan Infinite M1000 plate reader. Relative membrane leakage was calculated and plotted using GraphPad Prism v8.0.

[2] = serum stability assay (UPLC); assay type: in vitro ADME; conditions: 25% (v/v) in DPBS; 25% human serum, 37°C, after 22 h; read-out: degradation
Experimental: In comparison, the linear peptide Tat (cell-permeable peptide of HIV) was completely degraded within the first 120 min of incubation (Fig. 4B).
Human serum was diluted to 25% (v/v) in sterile DPBS and equilibrated at 37°C for 15 min. Peptides were added to the diluted serum to a final concentration of 20 μM and incubated at 37°C with gentle mixing. At designated time points, 30 μL aliquots were withdrawn and mixed with 30 μL of 15% trichloroacetic acid in MeOH (w/v) and 30 μL of MeCN and stored at 4°C overnight to completely precipitate the serum proteins. Next, each aliquot was centrifuged (15,000g, 5 min, 4°C) and 14 μL of the supernatant was injected in an UPLC equipped with an analytical Waters Acquity UPLC BEH C18 column (1.7 μm, 2.1 mm I.D., 100 mm length) and an inline UV-Vis detector and a single quadrupole mass detector. The column was eluted with a linear gradient of 20–50% MeCN in ddH2O containing 0.1% TFA. A UV/Vis detector at 214 nm and the mass spec quantifying the ion counts corresponding to the [M + 3H]^3+ ion of the analytes were used to analyze the samples. The area under the peak of interest was obtained by integration, normalized to that of the peptide at t = 0, and plotted as a function of the incubation time to determine the serum half-life of the peptide.

E. chaffeensis [3] = assay: E. chaffeensis infection of THP-1 cells, qPCR of 16S rRNA gene normalized to human actin; assay type: cell-based, Ehrlichia chaffeensis; conditions: for inhibition of E. chaffeensis infection: 10 μM, 2 days, vs DMSO control
E. chaffeensis [4] = assay: morphological examination of E. chaffeensis infection of THP-1 cells by Diff-Quik staining; conditions: for E. chaffeensis infection (numbers and sizes of morulae): THP-1 cells, Fig. S4 (with Figs. 5, S3)
BECN1 binding to Etf-1 = assay: streptavidin magnetic beads pull-down of BECN1 with biotin-Etf-1, Western blot; assay type: biochemical; conditions: 10 µM peptide
Experimental: Fig. 8.
Streptavidin magnetic beads (15 µL, Pierce, Rockford, IL, USA) were washed with 1 mL of Bind/Wash buffer (25 mM Tris, pH 7.4; 250 mM NaCl, 0.1% Tween 20), and incubated with 0.15 µg ([…] final concentration) of biotinylated full-length Etf-1 protein in bind/wash buffer at 4°C overnight with end-to-end rotation. Beads were washed three times with Bind/Wash buffer, then incubated with Etf-1-binding macrocyclic peptides (10 µM) or DMSO control in Bind/Wash buffer at room temperature for 2 h. […] Beads were washed three times, and proteins were eluted from the beads with 50 µL of 2× SDS-sample buffer. […] Reacting bands were visualized with enhanced chemiluminescence by incubating the membrane with LumiGLO chemiluminescent reagent (Thermo Fisher Scientific). Images were captured by Amersham Imager 680 (GE Healthcare) and densitometry analysis was performed using ImagQuaNT (GE Healthcare). In each specimen, band intensities were normalized against those of actin as the loading control, and the ratios of the treatment group to the control group were calculated with the value in the control groups arbitrarily set as 1.0.

Etf-1, sequence (Q2GG12 entry or part of it): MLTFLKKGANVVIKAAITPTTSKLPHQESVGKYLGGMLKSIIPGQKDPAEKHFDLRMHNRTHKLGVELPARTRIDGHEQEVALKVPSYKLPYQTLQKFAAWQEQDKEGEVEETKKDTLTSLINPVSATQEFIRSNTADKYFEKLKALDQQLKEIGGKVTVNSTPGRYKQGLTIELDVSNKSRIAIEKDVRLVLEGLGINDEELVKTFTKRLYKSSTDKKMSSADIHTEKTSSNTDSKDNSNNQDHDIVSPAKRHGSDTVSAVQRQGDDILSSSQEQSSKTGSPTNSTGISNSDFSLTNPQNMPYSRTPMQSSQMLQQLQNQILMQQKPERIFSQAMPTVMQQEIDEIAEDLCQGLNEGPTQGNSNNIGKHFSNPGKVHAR

Compound	competition for Etf-1 binding (Etf-1)	cell viability (THP-1 cells)	release of lactate dehydrogenase (LDH) [1]	metabolised at 22 h, 20 µM [2] [%]	inhibition of E. chaffeensis infection (E. chaffeensis [3])	E. chaffeensis infection (numbers and sizes of morulae) (E. chaffeensis [4])	cytotoxicity (cell lysis in treated groups) (E. chaffeensis [4]; THP-1 host cells)	IC50 (Etf-1) [nM]	dose dependence of inhibition of E. chaffeensis infection (E. chaffeensis [3]; 1, 5, and 10 μM)	inhibition of E. chaffeensis infection compared with peptide B7 (or B7-16) (E. chaffeensis [3]; THP-1 cells)	cytotoxicity (cell lysis in treated groups) (E. chaffeensis [4])	disruption of BECN1 binding to Etf-1 (BECN1 binding to Etf-1; compared to DMSO control)	BECN1/Etf-1 Ratio (BECN1 binding to Etf-1; band intensities, DMSO control set as 1, Fig. 8B)
CC(C)C[C@H]1NC(=O)[C@H](c2ccccc2)NC(=O)[C@H](CO)NC(=O)[C@@H](Cc2ccc3ccccc3c2)NC(=O)[C@@H](CC(N)=O)NC(=O)[C@H](Cc2ccc(O)cc2)NC(=O)c2cc3cc(c2)C(=O)NC[C@H](NC(=O)[C@@H](CC(C)C)NC1=O)C(=O)N[C@@H](Cc1ccc(Cl)cc1)C(=O)N[C@H](Cc1ccc2ccccc2c1)C(=O)N[C@H](CCCNC(=N)N)C(=O)N[C@@H](CCCNC(=N)N)C(=O)N[C@H](CCCNC(=N)N)C(=O)N[C@@H](CCCNC(=N)N)C(=O)N[C@H](C(N)=O)CNC3=O [Peptide B7-131-1, TMA-Tyr-asn-nal-Ser-Phg-leu-leu-Dap-4-ClPhe-nal-arg-Arg-arg-Arg-Dap] (Y[dN][d2Nal]S[Phg][dL][dL][Dap][Phe(4-Cl)][d2Nal][dR]R[dR]R[Dap]-NH2; linker N-8-15 via Trimesoyl)	Competition for Etf-1 binding was observed	greater loss of cell viability	significant release of lactate dehydrogenase	< 20	significantly inhibited	significantly inhibited	certain degrees of cytotoxicity	–	–	–	–	–	–
CC(C)C[C@H]1NC(=O)[C@H]2CCCN2C(=O)C[C@@H](C)NC(=O)[C@H](CCC(N)=O)NC(=O)[C@@H](Cc2ccc3ccccc3c2)NC(=O)[C@H](Cc2ccc(O)cc2)NC(=O)c2cc3cc(c2)C(=O)NC[C@H](NC1=O)C(=O)N[C@@H](Cc1ccc(Cl)cc1)C(=O)N[C@H](Cc1ccc2ccccc2c1)C(=O)N[C@H](CCCNC(=N)N)C(=O)N[C@@H](CCCNC(=N)N)C(=O)N[C@H](CCCNC(=N)N)C(=O)N[C@@H](CCCNC(=N)N)C(=O)N[C@H](C(N)=O)CNC3=O [Peptide B7-133-8, TMA-Tyr-nal-Gln-homoAla-pro-leu-Dap-4-ClPhe-nal-arg-Arg-arg-Arg-Dap] (Y[d2Nal]Q[d(β3hA)][dP][dL][Dap][Phe(4-Cl)][d2Nal][dR]R[dR]R[Dap]-NH2; linker N-7-14 via Trimesoyl)	Competition for Etf-1 binding was observed	–	significant release of lactate dehydrogenase	< 20	significantly inhibited	significantly inhibited	–	110 ± 20	dose-dependent manner	significantly more potent inhibition	certain degrees of cytotoxicity	disrupted BECN1 binding to Etf-1	0.19
